Like-named read-outs stand apart in the source and are kept apart here.
What was measured:
Format in all cases: cell-based, human
[1] = tested on: A549 cells; assay: Cytotoxicity as LDH release in A549 cells; details: A549, 75 μM, 48 hours treatment; for LDH release, % of control at 75 µM: Homo sapiens, read-out: LDH rel. % con.
Experimental: (§1) Cell lines and culture conditions. Human lung epithelial cancer (A549), human leukemia HL-60 and human prostate (PC-3) tumor cells were purchased from ATCC (Manassas, Va.). A549 and PC-3 cells were grown in Ham's F12 medium (F12) and Kaighn's modification of Ham's F12 medium (F12K) with 2 mM L-glutamine (ATCC), respectively, supplemented with 10% fetal bovine serum (FBS) and 5% pen/strep (10,000 unit, Cellgro). HL-60 cells were grown in Iscove's modified Dulbecco's medium with 4 mM L-glutamine (ATCC) supplemented with 20% FBS and 5% pen/strep. Cell were grown in T-75 flask at 37° C. and 5% CO2 air atmosphere and in 24-well plates for GSH levels and LDH release measurements.
(§2) Assessment of cytotoxicity. In one exemplary method, membrane integrity of A549, HL-60 and PC-3 cells was used as an index of drug-induced cytotoxicity, and was assessed by monitoring the release of cytosolic lactate dehydrogenase (LDH). LDH activity was measured in the culture medium and cell lysates (50 mM HEPES, Triton X-100 0.5%, pH 7) using a plate reader format as previously described (41). Briefly, 5 μl of cell culture supernatant and lysates were incubated with 0.24 mM NADH in a Tris/NaCl pH 7.2 buffer in 96-well plates for 5 min at 25° C. The reaction was started by the addition of 9.8 mM pyruvate and the consumption of NADH followed at 340 nm for 5 min at 30° C. Percent LDH release was calculated by the following: (supernatant LDH/supernatant LDH+lysate LDH)×100.

[2] = tested on: HL-60 cells; assay: Cytotoxicity as LDH release in HL-60 cells; details: 48 hours treatment; for LDH release, % of control at 50 µM: Homo sapiens, read-out: LDH rel. % con.
Experimental: as §1, §2

[3] = tested on: A549 cells; assay: Intracellular GSH levels by HPLC-EC in A549 cells; details: for effect on intracellular GSH (words): A549 cells
Experimental: as §1
(§3) Intracellular levels of GSH. Intracellular GSH levels can be determined by HPLC-EC. Cultured cells from 24-well plates were washed once with 1 ml of PBS and then re-suspended in 0.5 ml of distilled water with 40 μM of digitonin (2 mM stock solution in DMSO) for 30 min at room temperature. Then, 50 μl of 10% meta-phosphoric acid were added (1% final concentration), the samples were sonicated for 2 min, centrifuged at 20,000 g for 10 min, and 0.2 ml of supernatant placed in vials for HPLC analysis. […] The flow rate was […]. The retention time for GSH in these conditions was 7.5 min. The HPLC instrument was from ESA, Inc. (Chelmsford, Mass.), equipped with an autosampler (model 540) and a Coul array detector (model 5600A). The potential applied was +0.75 V vs. H/Pd electrode, and the injection volume 5 μl.

[4] = tested on: PC-3 cells; assay: Intracellular GSH levels by HPLC-EC in PC-3 cells; details: for activity at 50 µM: PC-3, 50 μM; for effect on intracellular GSH (words): PC-3 cells
Experimental: as §1, §3

[5] = tested on: PC-3 cells; assay: Cytotoxicity as LDH release in PC-3 cells; details: for LDH rel. % con. / LDH release, % of control at 50 µM: PC-3, 50 μM, 48 hours treatment; for LDH release, % of control at 50 µM: Homo sapiens, read-out: LDH rel. % con.
Experimental: as §1, §2

[6] = tested on: HL-60 cells; assay: Intracellular GSH levels by HPLC-EC in HL-60 cells; details: 24 hours treatment; for activity at 75 µM: HL-60, 75 μM
Experimental: as §1, §3

[7] = PC-3, 25 μM, 24 hours treatment
[8] = Homo sapiens, 24 hours treatment, read-out: Int. GSH % con.
[9] = Homo sapiens, read-out: Int. GSH % con.
[10] = Homo sapiens, A549, 25 μM, 2 h, read-out: Intracellular GSH levels, % compared to control
[11] = Homo sapiens, A549, 25 μM, 4 h, read-out: Intracellular GSH levels, % compared to control

Q: Which results are given for `COc1cc2c(cc1O)CC[C@@H]1[C@@H]2CC[C@]2(C)[C@@H](O)CC[C@@H]12` [2-ME, 2-methoxyestradiol, reference compound]?
A: LDH rel. % con. [1]: 150 % con.; LDH rel. % con. ([2]; HL-60, 25 μM): 265 % con.; Int. GSH % con. ([3]; A549, 50 μM, 24 hours treatment): 49 % con.; Int. GSH % con. [4, 7]: 68 % con.; LDH rel. % con. [5]: 128 % con.; Int. GSH % con. ([6]; HL-60, 25 μM): 41 % con.

Q: How did the LDH release, % of control at 75 µM [1] turn out when `O=c1c(O)c(-c2ccc(O)cc2O)oc2cc(O)cc(O)c12` [Morin] was run?
A: 112%

Q: And the LDH release, % of control at 50 µM ([2]; HL-60, 50 μM)?
A: 97%

Q: And the activity at 75 µM ([3]; Homo sapiens, A549, 75 μM, 24 hours treatment, read-out: Int. GSH % con.)?
A: 72%

Q: And the activity at 50 µM [4, 8]?
A: 125%

Q: What about the “effect on intracellular GSH (words)” value ([4]; 50-75 μM) of the same molecule?
A: stimulated an increase in intracellular GSH

Q: What about the LDH release, % of control at 50 µM [5] of the same molecule?
A: 80%

Q: What about the activity at 75 µM [6, 9] of the same molecule?
A: 86%

Q: `O=c1c(O)c(-c2ccccc2)oc2cc(O)cc(O)c12` [Galangin, 3,5,7 trihydroxyflavone] was tested. Which LDH release, % of control at 75 µM [1] did it give?
A: 155%

Q: And the LDH release, % of control at 50 µM ([2]; HL-60, 50 μM)?
A: 114%

Q: And the activity at 25 µM [3, 10]?
A: 62.9 ± 0.4%

Q: What about the activity at 25 µM ([3]; Homo sapiens, A549, 25 μM, 24 hours treatment, read-out: Int. GSH % con.) of the same molecule?
A: < 5%

Q: And the activity at 25 µM ([4]; Homo sapiens, PC-3, 25 μM, 24 hours treatment, read-out: Int. GSH % con.)?
A: 68%

Q: And the LDH release, % of control at 50 µM [5]?
A: 140%

Q: What about the activity at 50 µM ([6]; Homo sapiens, HL-60, 50 μM, read-out: Int. GSH % con.) of the same molecule?
A: 69%

Q: `O=c1cc(-c2ccc(O)cc2)oc2cc(O)cc(O)c12` [Apigenin] was tested. Which “LDH rel. % con.” value [1] did it give?
A: 284 % con.

Q: And the “LDH rel. % con.” value ([2]; HL-60, 50 μM)?
A: 259 % con.

Q: What about the “Intracellular GSH levels, % compared to control” value (“Intracellular GSH levels, %” for short) ([3]; A549, 25 μM, 4 h) of the same molecule?
A: 17.1 ± 1.4%

Q: What about the “Int. GSH % con.” value ([3]; A549, 25 μM, 24 hours treatment) of the same molecule?
A: 9 % con.

Q: And the “Int. GSH % con.” value [4, 7]?
A: 32 % con.

Q: And the “effect on intracellular GSH (words)” value [4]?
A: one active flavone-like structure for inducing GSH depletion

Q: And the “LDH rel. % con.” value [5]?
A: 142 % con.

Q: What about the “effect on curcumin-induced toxicity, LDH release” value ([5]; PC-3 cells, 48 hours (FIG. 20C)) of the same molecule?
A: potentiated the curcumin's toxicity, but unexpectedly less than chrysin

Q: And the “Int. GSH % con.” value ([6]; HL-60, 50 μM)?
A: 66 % con.

Q: How did the activity at 25 µM [3, 10] turn out when `O=C(/C=C/c1ccc(O)cc1)c1ccccc1` [4-HC, 4-hydroxychalcone] was run?
A: 5.5 ± 0.4%

Q: And the activity at 25 µM [3, 11]?
A: < 5%

Q: How did the “Intracellular GSH levels, %” value ([3]; A549, 25 μM, 2 h) turn out when `O=C(/C=C/c1ccccc1)c1ccc(O)cc1O` [2′,4′-DHC, 2′ 4′ dihydroxychalcone] was run?
A: 22.0 ± 1.8%

Q: What about the “Intracellular GSH levels, %” value ([3]; A549, 25 μM, 4 h) of the same molecule?
A: <5%

Q: Which LDH release, % of control at 75 µM [1] does the source give for `O=c1cc(-c2ccccc2)oc2cc(O)c(O)c(O)c12` [Baicalein, 5,6,7 trihydroxyflavone] here?
A: 206%

Q: What about the LDH release, % of control at 50 µM ([2]; HL-60, 50 μM) of the same molecule?
A: 129%

Q: And the activity at 50 µM ([3]; Homo sapiens, A549, 50 μM, 24 hours treatment, read-out: Int. GSH % con.)?
A: 41%

Q: What about the activity at 50 µM [4, 8] of the same molecule?
A: 100%

Q: What about the LDH release, % of control at 50 µM [5] of the same molecule?
A: 94%

Q: And the activity at 75 µM [6, 9]?
A: 82%

Q: Which “Intracellular GSH levels, %” value ([3]; A549, 25 μM, 2 h) does the source give for `O=C(/C=C/c1ccccc1O)c1ccccc1O` [2′,2-DHC, 2′ 2 dihydroxychalcone] here?
A: <5%

Q: And the “Intracellular GSH levels, %” value ([3]; A549, 25 μM, 4 h)?
A: <5%

Q: How did the “effect on intracellular GSH (words)” value [3] turn out when `COc1ccc2c(=O)cc(-c3ccccc3)oc2c1` [7-MF, 7-Methoxyflavone] was run?
A: less effective than 7-HF but more effective than flavone

Q: And the activity at 25 µM [3, 10]?
A: 78.2 ± 2.4%

Q: Which results are given for `O=c1cc(-c2ccccc2)oc2cccc(O)c12` [5-HF, 5-hydroxyflavone]?
A: effect on intracellular GSH (words) [3]: less effective; activity at 25 µM [3, 11]: 44.7 ± 3.4%

Q: How did the activity at 25 µM [3, 10] turn out when `O=C(/C=C/c1ccccc1O)c1ccccc1` [2-HC, 2-hydroxychalcone] was run?
A: < 5%

Q: What about the activity at 25 µM [3, 11] of the same molecule?
A: < 5%

Reference: patent US7790762B2, “Compounds and methods for thiol-containing compound efflux and cancer treatment” (National Jewish Health, priority 2002, dated 2010)
